According to patent US20250353891A1 (MEDIMMUNE LIMITED, priority 2022, published 2025):
Starred links: 1 amine or outer side, 2 acyl side, 3 side chain; linkers in the order of their positions; H or OH if unused. Non-standard residues stand in square brackets, D forms with d. Residues, ends and D or L forms follow the SMILES beside them. Groups on a side chain read outwards from the residue. *: point of attachment. C20 diacid = O=C(O)CCCCCCCCCCCCCCCCCCC(=O)*; C18 diacid = O=C(O)CCCCCCCCCCCCCCCCC(=O)*; γGlu = O=C(O)[C@H](CCC(=O)[*:2])N[*:1]; αMeF = C[C@](N)(Cc1ccccc1)C(=O)O; AEEA = NCCOCCOCC(=O)O; Aib = CC(C)(N)C(=O)O

Tests used:
[1] = target: human GLP-1 receptor (hGLP-1R) (Homo sapiens, UniProt P43220); experiment: cAMP production (HTRF) in CHO cells expressing hGLP-1R; type: cell-based; parameters: expressed in transfected cells; details: for EC50: Table 7, peptides modified at position 20, cAMP in CHO hGLP-1R cells, geometric mean, read-out: hGLP-1R EC50; for % Relative Potency Ratio: Table 7, % GLP-1R activity relative to GLP-1 / % GlucR activity relative to glucagon
Sequence of human GLP-1 receptor (hGLP-1R) (P43220 24-463): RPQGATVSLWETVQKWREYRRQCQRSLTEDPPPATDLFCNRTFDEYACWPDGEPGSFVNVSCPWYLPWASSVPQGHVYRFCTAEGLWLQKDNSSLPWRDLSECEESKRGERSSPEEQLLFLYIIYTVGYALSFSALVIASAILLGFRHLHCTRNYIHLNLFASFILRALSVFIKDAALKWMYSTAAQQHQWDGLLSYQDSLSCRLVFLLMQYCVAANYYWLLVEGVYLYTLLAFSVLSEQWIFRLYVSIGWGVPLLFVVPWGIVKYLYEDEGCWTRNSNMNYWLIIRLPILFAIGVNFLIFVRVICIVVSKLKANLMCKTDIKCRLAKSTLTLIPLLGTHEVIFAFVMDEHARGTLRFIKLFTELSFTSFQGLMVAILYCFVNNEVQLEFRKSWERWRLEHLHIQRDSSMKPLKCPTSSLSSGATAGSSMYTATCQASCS
Method in brief: (§1)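 Cells were resuspended in assay buffer at batch-optimized density, typically 1×10^5 cells/mL for hGLP-1R and 2×10^5 cells/mL for hGCGR. After 30 min incubation at room temperature with compound, cAMP was measured by two-step HTRF. EC50 values came from 4-parameter logistic fits of % Delta F.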

[2] = target: human glucagon receptor (hGCGR) (Homo sapiens, UniProt P47871); experiment: cAMP production (HTRF) in CHO cells expressing hGCGR; type: cell-based; parameters: expressed in transfected cells; details: Table 7, peptides modified at position 20; cAMP in CHO hGCGR cells; geometric mean; read-out: hGluc-R EC50
Sequence of human glucagon receptor (hGCGR) (P47871 26-477): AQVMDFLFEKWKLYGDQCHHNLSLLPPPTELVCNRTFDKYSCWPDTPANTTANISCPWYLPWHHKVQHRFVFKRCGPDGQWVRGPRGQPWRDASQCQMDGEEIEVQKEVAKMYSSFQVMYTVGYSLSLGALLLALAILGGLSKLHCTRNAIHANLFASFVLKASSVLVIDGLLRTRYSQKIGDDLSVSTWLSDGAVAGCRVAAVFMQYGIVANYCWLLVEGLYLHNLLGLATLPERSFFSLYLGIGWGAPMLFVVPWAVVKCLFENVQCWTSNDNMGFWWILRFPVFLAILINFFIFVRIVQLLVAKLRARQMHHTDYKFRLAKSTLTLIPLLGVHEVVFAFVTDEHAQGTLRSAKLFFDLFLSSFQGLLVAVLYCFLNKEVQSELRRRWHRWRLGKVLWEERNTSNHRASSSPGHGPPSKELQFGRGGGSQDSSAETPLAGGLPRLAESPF
Method in brief: as §1

CC[C@H](C)[C@H](NC(=O)[C@H](CO)NC(=O)[C@H](CCC(=O)O)NC(=O)[C@@H](NC(=O)[C@](C)(Cc1ccccc1)NC(=O)[C@H](CC(=O)O)NC(=O)[C@H](CCCCNC(=O)COCCOCCNC(=O)COCCOCCNC(=O)CC[C@H](NC(=O)CC[C@H](NC(=O)CCCCCCCCCCCCCCCCC(=O)O)C(=O)O)C(=O)O)NC(=O)[C@H](C)NC(=O)C(C)(C)NC(=O)[C@H](CCCNC(=N)N)NC(=O)[C@H](CO)NC(=O)[C@H](CC(=O)O)NC(=O)[C@H](CC(C)C)NC(=O)[C@](C)(Cc1ccccc1)NC(=O)[C@H](CCCCN)NC(=O)[C@H](CO)NC(=O)[C@@H](NC(=O)[C@H](CC(=O)O)NC(=O)[C@H](CO)NC(=O)[C@@H](NC(=O)[C@](C)(Cc1ccccc1)NC(=O)[C@H](CO)NC(=O)CNC(=O)[C@H](Cc1c[nH]cn1)NC(=O)C(C)(C)NC(=O)[C@@H](N)Cc1c[nH]cn1)[C@@H](C)O)C(C)C)C(C)C)C(=O)N[C@@H](C)C(=O)N[C@@H](CC(N)=O)C(=O)N[C@H](C(N)=O)[C@@H](C)O [Peptide 250] (H-H[Aib]HGS[αMeF]TSDVSK[αMeF]LDSR[Aib]AK([AEEA-AEEA-γGlu-γGlu-C18 diacid])D[αMeF]VESIANT-NH2)
EC50 [1]: 0.601 nM
% Relative Potency Ratio [1]: 5.2
EC50 [2]: 1.57 nM

CC[C@H](C)[C@H](NC(=O)[C@H](CO)NC(=O)[C@H](CCC(=O)O)NC(=O)[C@@H](NC(=O)[C@H](Cc1ccccc1)NC(=O)[C@H](CC(=O)O)NC(=O)[C@H](CCCCNC(=O)COCCOCCNC(=O)COCCOCCNC(=O)CC[C@H](NC(=O)CCCCCCCCCCCCCCCCC(=O)O)C(=O)O)NC(=O)[C@H](C)NC(=O)C(C)(C)NC(=O)[C@H](CCCNC(=N)N)NC(=O)[C@H](CO)NC(=O)[C@H](CC(=O)O)NC(=O)[C@H](CC(C)C)NC(=O)[C@](C)(Cc1ccccc1)NC(=O)[C@H](CCCCN)NC(=O)[C@H](CO)NC(=O)[C@@H](NC(=O)[C@H](CC(=O)O)NC(=O)[C@H](CO)NC(=O)[C@@H](NC(=O)[C@](C)(Cc1ccccc1)NC(=O)[C@H](CO)NC(=O)CNC(=O)[C@H](Cc1c[nH]cn1)NC(=O)C(C)(C)NC(=O)[C@@H](N)Cc1c[nH]cn1)[C@@H](C)O)C(C)C)C(C)C)C(=O)N[C@@H](C)C(=O)N[C@@H](CC(N)=O)C(=O)N[C@H](C(N)=O)[C@@H](C)O [Peptide 251] (H-H[Aib]HGS[αMeF]TSDVSK[αMeF]LDSR[Aib]AK([AEEA-AEEA-γGlu-C18 diacid])DFVESIANT-NH2; N-terminus assumed)
EC50 [1]: 0.0798 nM
% Relative Potency Ratio [1]: 6.2
EC50 [2]: 0.248 nM

CC[C@H](C)[C@H](NC(=O)[C@H](CO)NC(=O)[C@H](CCC(=O)O)NC(=O)[C@@H](NC(=O)[C@H](Cc1ccccc1)NC(=O)[C@H](CC(=O)O)NC(=O)[C@H](CCCCNC(=O)COCCOCCNC(=O)COCCOCCNC(=O)CC[C@H](NC(=O)CCCCCCCCCCCCCCCCCCC(=O)O)C(=O)O)NC(=O)[C@H](C)NC(=O)C(C)(C)NC(=O)[C@H](CCCNC(=N)N)NC(=O)[C@H](CO)NC(=O)[C@H](CC(=O)O)NC(=O)[C@H](CC(C)C)NC(=O)[C@](C)(Cc1ccccc1)NC(=O)[C@H](CCCCN)NC(=O)[C@H](CO)NC(=O)[C@@H](NC(=O)[C@H](CC(=O)O)NC(=O)[C@H](CO)NC(=O)[C@@H](NC(=O)[C@](C)(Cc1ccccc1)NC(=O)[C@H](CO)NC(=O)CNC(=O)[C@H](Cc1c[nH]cn1)NC(=O)C(C)(C)NC(=O)[C@@H](N)Cc1c[nH]cn1)[C@@H](C)O)C(C)C)C(C)C)C(=O)N[C@@H](C)C(=O)N[C@@H](CC(N)=O)C(=O)N[C@H](C(N)=O)[C@@H](C)O [Peptide 252] (H-H[Aib]HGS[αMeF]TSDVSK[αMeF]LDSR[Aib]AK([AEEA-AEEA-γGlu-C20 diacid])DFVESIANT-NH2)
EC50 [1]: 0.119 nM
% Relative Potency Ratio [1]: 21.7
EC50 [2]: 1.31 nM

CC[C@H](C)[C@H](NC(=O)[C@H](CO)NC(=O)[C@H](CCC(=O)O)NC(=O)[C@@H](NC(=O)[C@H](Cc1ccccc1)NC(=O)[C@H](CC(=O)O)NC(=O)[C@H](CCCCNC(=O)COCCOCCNC(=O)CC[C@H](NC(=O)CCCCCCCCCCCCCCCCC(=O)O)C(=O)O)NC(=O)[C@H](C)NC(=O)C(C)(C)NC(=O)[C@H](CCCNC(=N)N)NC(=O)[C@H](CO)NC(=O)[C@H](CC(=O)O)NC(=O)[C@H](CC(C)C)NC(=O)[C@](C)(Cc1ccccc1)NC(=O)[C@H](CCCCN)NC(=O)[C@H](CO)NC(=O)[C@@H](NC(=O)[C@H](CC(=O)O)NC(=O)[C@H](CO)NC(=O)[C@@H](NC(=O)[C@](C)(Cc1ccccc1)NC(=O)[C@H](CO)NC(=O)CNC(=O)[C@H](Cc1c[nH]cn1)NC(=O)C(C)(C)NC(=O)[C@@H](N)Cc1c[nH]cn1)[C@@H](C)O)C(C)C)C(C)C)C(=O)N[C@@H](C)C(=O)N[C@@H](CC(N)=O)C(=O)N[C@H](C(N)=O)[C@@H](C)O [Peptide 253] (H-H[Aib]HGS[αMeF]TSDVSK[αMeF]LDSR[Aib]AK([AEEA-γGlu-C18 diacid])DFVESIANT-NH2)
EC50 [1]: 0.0755 nM
% Relative Potency Ratio [1]: 1.4
EC50 [2]: 0.0531 nM

CC[C@H](C)[C@H](NC(=O)[C@H](CO)NC(=O)[C@H](CCC(=O)O)NC(=O)[C@@H](NC(=O)[C@H](Cc1ccccc1)NC(=O)[C@H](CC(=O)O)NC(=O)[C@H](CCCCNC(=O)CC[C@H](NC(=O)CCCCCCCCCCCCCCCCC(=O)O)C(=O)O)NC(=O)[C@H](C)NC(=O)C(C)(C)NC(=O)[C@H](CCCNC(=N)N)NC(=O)[C@H](CO)NC(=O)[C@H](CC(=O)O)NC(=O)[C@H](CC(C)C)NC(=O)[C@](C)(Cc1ccccc1)NC(=O)[C@H](CCCCN)NC(=O)[C@H](CO)NC(=O)[C@@H](NC(=O)[C@H](CC(=O)O)NC(=O)[C@H](CO)NC(=O)[C@@H](NC(=O)[C@](C)(Cc1ccccc1)NC(=O)[C@H](CO)NC(=O)CNC(=O)[C@H](Cc1c[nH]cn1)NC(=O)C(C)(C)NC(=O)[C@@H](N)Cc1c[nH]cn1)[C@@H](C)O)C(C)C)C(C)C)C(=O)N[C@@H](C)C(=O)N[C@@H](CC(N)=O)C(=O)N[C@H](C(N)=O)[C@@H](C)O [Peptide 254] (H-H[Aib]HGS[αMeF]TSDVSK[αMeF]LDSR[Aib]AK([γGlu-C18 diacid])DFVESIANT-NH2)
EC50 [1]: 0.102 nM
% Relative Potency Ratio [1]: 2.4
EC50 [2]: 0.125 nM

CC[C@H](C)[C@H](NC(=O)C(C)(C)NC(=O)[C@H](CCC(N)=O)NC(=O)[C@@H](NC(=O)[C@](C)(Cc1ccccc1)NC(=O)[C@H](CC(=O)O)NC(=O)[C@H](CCCCNC(=O)COCCOCCNC(=O)COCCOCCNC(=O)CC[C@H](NC(=O)CCCCCCCCCCCCCCCCC(=O)O)C(=O)O)NC(=O)[C@H](C)NC(=O)[C@H](C)NC(=O)[C@H](CCC(N)=O)NC(=O)[C@H](CO)NC(=O)[C@H](CC(=O)O)NC(=O)[C@H](CC(C)C)NC(=O)[C@](C)(Cc1ccccc1)NC(=O)[C@H](CCCCN)NC(=O)[C@H](CO)NC(=O)[C@@H](NC(=O)[C@H](CC(=O)O)NC(=O)[C@H](CO)NC(=O)[C@@H](NC(=O)[C@](C)(Cc1ccccc1)NC(=O)[C@H](CO)NC(=O)CNC(=O)[C@H](Cc1c[nH]cn1)NC(=O)C(C)(C)NC(=O)[C@@H](N)Cc1c[nH]cn1)[C@@H](C)O)C(C)C)C(C)C)C(=O)N[C@@H](C)C(=O)N[C@@H](CC(N)=O)C(=O)N[C@H](C(N)=O)[C@@H](C)O [Peptide 255] (H-H[Aib]HGS[αMeF]TSDVSK[αMeF]LDSQAAK([AEEA-AEEA-γGlu-C18 diacid])D[αMeF]VQ[Aib]IANT-NH2; N-terminus assumed)
EC50 [1]: 0.148 nM
% Relative Potency Ratio [1]: 2.0
EC50 [2]: 0.146 nM
